Test results published in publication PMC10544575, “Inhibitory mechanism of vortioxetine on CYP450 enzymes in human and rat liver microsomes” (Frontiers in Pharmacology, 2023).
Read-outs that look alike come from different tables or passages of the source.

Columns and labels:
CYP2C9 = CYP2C9 (Homo sapiens, UniProt P11712); experiment: Reversible inhibition kinetics (Lineweaver-Burk), CYP2C9 in HLMs; format: in vitro ADME; design: 0.20 mg/mL HLMs; from tissue; host or cells: human liver microsomes; details: losartan
Chain of CYP2C9 (P11712 whole entry): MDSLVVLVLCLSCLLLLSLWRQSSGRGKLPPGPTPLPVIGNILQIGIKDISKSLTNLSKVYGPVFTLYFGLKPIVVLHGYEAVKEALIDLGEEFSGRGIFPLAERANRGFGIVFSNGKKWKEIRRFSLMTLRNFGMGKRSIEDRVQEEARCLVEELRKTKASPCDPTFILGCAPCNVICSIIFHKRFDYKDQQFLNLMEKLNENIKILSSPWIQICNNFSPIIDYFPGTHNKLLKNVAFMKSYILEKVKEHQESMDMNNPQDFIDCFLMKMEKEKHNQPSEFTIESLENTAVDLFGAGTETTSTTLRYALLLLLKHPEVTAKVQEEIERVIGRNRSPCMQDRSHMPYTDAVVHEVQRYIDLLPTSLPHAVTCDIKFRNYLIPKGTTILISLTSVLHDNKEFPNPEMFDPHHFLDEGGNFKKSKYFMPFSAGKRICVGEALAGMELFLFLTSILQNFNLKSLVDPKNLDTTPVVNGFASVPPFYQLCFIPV
Description: (§1) The components of the incubation system were as follows: 0.20 mg/mL HLMs or 0.20 mg/mL RLMs, 0.1 M Tris-HCl, vortioxetine, and the probe substrates of each enzyme. In the study of Km’s (Michaelis–Menten constant) experiment, midazolam (1, 2, 5, 10, 20, 50 and 100 μM in HLMs and RLMs) corresponded to CYP3A4/3A; bupropion (10, 20, 50, 100, 200, 500, 1,000 and 2000 μM in HLMs; 1, 2, 5, 10, 20, 50, 100 and 200 μM in RLMs) corresponded to CYP2B6/2B; amodiaquine (5, 10, 20, 50, 100 and 200 μM in HLMs; 10, 20, 50, 100, 200, 500 μM in RLMs) corresponded to CYP2C8/CYP2C-1; losartan (1, 2, 5, 10, 20, 50, 100, 200 μM in HLMs; 10, 20, 50, 100, 200, 500 and 1,000 μM in RLMs) corresponded to CYP2C9/CYP2C-2; mephenytoin (20, 50, 100, 200, 500 and 1,000 μM in HLMs; 5, 10, 20, 50, 100, 200, 500 and 1,000 μM in RLMs) corresponded to CYP2C19/CYP2C-3; and dextromethorphan (1, 2, 5, 10, 20, 50 and 100 μM in HLMs and RLMs) corresponded to CYP2D6/CYP2D. After 5.0 min of preincubation in the shaking water bath, the reaction was started with the addition of 1.0 mM NADPH. The incubated temperature at 37°C for 30 min. After the incubation, the enzyme reaction was stopped by cooling at −80°C, and 200 μL of acetonitrile and 20 μL of internal standard diazepam (200 ng/mL) were added for protein precipitation. The solution was fully vortexed and centrifuged at 13,000 × rpm for 10 min, and the supernatant was collected for data analysis by UPLC-MS/MS.
The inhibitory mechanism of the inhibitor on the enzyme was generally used by different concentrations of the inhibitor against different concentrations of the probe substrate. The concentrations of the inhibitor and the concentrations of probe substrates in the experiment were estimated based on IC50 and Km values, respectively.
In HLMs, the concentrations of the substrates midazolam, bupropion, amodiaquine, losartan, mephenytoin, and dextromethorphan were 1, 2, 4, 8 μM; 10, 20, 40, 80 μM; 0.8, 1.5, 3, 6 μM; 2, 4, 8, 16 μM; 20, 45, 90, 180 μM; 2.5, 5, 10, 20 μM, respectively. Corresponding to the concentration of vortioxetine were 2, 4, 9, 18 μM; 2, 4, 8, 16 μM; 4, 8, 15, 30 μM; 5, 10, 25, 50 μM; 0.6, 1.2, 2.5, 5 μM; 4.5, 9, 18, 36 μM, respectively.
All experiments results were detected by UPLC-MS/MS, which equipped with a Waters Acquity UPLC system (Milford, MA, United States) and a Waters Xevo TQ-S triple quadrupole tandem mass spectrometer with an electrospray ionization source (Milford, MA, United States). The chromatographic separation was performed on a Waters ACQUITY UPLC BEH C18 column (2.1 × 50 mm, 1.7 μm, Waters Corp.) at 40°C. […]
(§2) IC50 values and enzyme kinetic parameters were calculated by Graphpad Prism 6.0 (GraphPad software Inc., CA, United States). […] Data for each experiment were expressed as mean ± SD (n = 3).

CYP2B [1] = experiment: IC50 of vortioxetine on CYP2B (bupropion) in RLMs; format: in vitro ADME; details: rat, rat liver microsomes, probe bupropion
Description: as §1, with “After 5.0 min of preincubation in the shaking water bath, the reaction was started with the addition of 1.0 mM NADPH. The incubated temperature at 37°C for 30 min. After the incubation, the enzyme reaction was stopped by cooling at −80°C, and 200 μL of acetonitrile and 20 μL of internal standard diazepam (200 ng/mL) were added for protein precipitation. The solution was fully vortexed and centrifuged at 13,000 × rpm for 10 min, and the supernatant was collected for data analysis by UPLC-MS/MS.” left out
(§3) All experiments results were detected by UPLC-MS/MS, which equipped with a Waters Acquity UPLC system (Milford, MA, United States) and a Waters Xevo TQ-S triple quadrupole tandem mass spectrometer with an electrospray ionization source (Milford, MA, United States). […]
as §2

CYP3A4 = CYP3A4 (Homo sapiens, UniProt P08684); experiment: IC50-shift experiment, CYP3A4 in HLMs; format: in vitro ADME; design: 0.20 mg/mL HLMs or 0.20 mg/mL RLMs; from tissue; host or cells: human liver microsomes; details: for IC50: midazolam 4 μM
Chain of CYP3A4 (P08684 whole entry): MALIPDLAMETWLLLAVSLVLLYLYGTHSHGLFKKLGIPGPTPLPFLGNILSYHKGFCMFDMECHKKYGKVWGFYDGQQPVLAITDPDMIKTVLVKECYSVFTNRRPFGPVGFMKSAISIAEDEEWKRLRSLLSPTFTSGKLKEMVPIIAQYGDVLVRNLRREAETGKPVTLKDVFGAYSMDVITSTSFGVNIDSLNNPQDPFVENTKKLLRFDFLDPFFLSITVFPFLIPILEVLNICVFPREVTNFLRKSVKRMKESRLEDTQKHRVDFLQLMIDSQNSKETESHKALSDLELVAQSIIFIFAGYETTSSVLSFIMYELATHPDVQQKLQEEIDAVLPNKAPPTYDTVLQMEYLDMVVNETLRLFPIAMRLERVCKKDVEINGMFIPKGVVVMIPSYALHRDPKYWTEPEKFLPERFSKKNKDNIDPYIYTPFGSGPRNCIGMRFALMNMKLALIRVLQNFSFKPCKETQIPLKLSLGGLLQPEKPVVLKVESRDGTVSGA
Description: as §1, with “The solution was fully vortexed and centrifuged at 13,000 × rpm for 10 min, and the supernatant was collected for data analysis by UPLC-MS/MS.” left out
IC50-shift was used to investigate whether the drug produced time-dependent inhibition (TDI) of the enzyme. […] During the experiment, the individual substrates midazolam (4 μM), bupropion (40 μM), amodiaquine (3 μM), losartan (8 μM), mephenytoin (90 μM), and dextromethorphan (10 μM) were determined with vortioxetine IC50-shift in HLMs. […]
as §3, §2

CYP2B [2] = experiment: Reversible inhibition kinetics (Lineweaver-Burk), CYP2B in RLMs; format: in vitro ADME, rat
Description: as §1, with “After 5.0 min of preincubation in the shaking water bath, the reaction was started with the addition of 1.0 mM NADPH. The incubated temperature at 37°C for 30 min. After the incubation, the enzyme reaction was stopped by cooling at −80°C, and 200 μL of acetonitrile and 20 μL of internal standard diazepam (200 ng/mL) were added for protein precipitation. The solution was fully vortexed and centrifuged at 13,000 × rpm for 10 min, and the supernatant was collected for data analysis by UPLC-MS/MS.” left out
as §3, §2

In the case of `Cc1ccc(Sc2ccccc2N2CCNCC2)c(C)c1` [vortioxetine], the Ki (CYP2C9) is reported as 4.17 µM, the α (CYP2C9) is reported as 15.94 and the Inhibition type (CYP2C9; Lineweaver-Burk plot) is reported as “mixed inhibition”. It also gave a αKi (CYP2C9; secondary plot of y-intercepts) of 66.5 µM, an IC50 at 30 min (CYP2B [1]; RLMs 0.20 mg/mL, bupropion at Km, 37°C, 30 min, read-out: IC50) of 8.89 µM and an IC50 at 30 min (CYP2B [1]; inhibitory effect (strength judged by IC50), RLMs) of 1 to 10 µM. For the same compound, the IC50 (CYP3A4; 30 min preincubation with 1.0 mM NADPH) was 13.7 µM, the IC50 (CYP3A4; 30 min preincubation without NADPH) was 15.5 µM and the IC50 shift at 30 min (CYP3A4; human, human liver microsomes, probe midazolam (4 μM), ratio IC50 (−) NADPH to IC50 (+) NADPH, read-out: IC50 fold shift) was 1.14. The Inhibition type (CYP2B [2]; bupropion, Lineweaver-Burk plot) was “competitive inhibition” and the Ki at 30 min (CYP2B [2]; rat, rat liver microsomes, probe bupropion) was 2.87 µM.
